These results are taken from the METLIN SMRT retention time set (Domingo-Almenara et al. 2019).

A short description of this data set: gradient 5% acetonitrile 3 min, to 50% in 2 min, to 85% in 15 min, held 3 min, 100 µL/min. To be noted: column: Zorbax Extend-C18 2.1 x 50 mm; eluents: water / acetonitrile, 0.1% formic acid. The gist of the method: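 Data were gathered over 3 months by HPLC coupled to a quadrupole time-of-flight mass spectrometer, operated in positive and negative ionization mode. Mixtures of ~100 pure standards ran on a Zorbax Extend-C18 column (2.1 × 50 mm, 1.8 μm) at 100 μL/min, with water and acetonitrile each containing 0.1% formic acid and dead and dwell volumes of 40 μL and 900 μL. Retention time was read from adduct peaks picked by computer and checked manually.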
For `CCOc1ccccc1C(=O)Nc1nnc(SC(C)c2ccccc2)s1` (stereo unspecified), the RP-LC retention time amounted to 1140 s. With `Cc1cccc(-c2nc(Cn3nnc(-c4nc(-c5cccc(Cl)c5)no4)c3C)c(C)o2)c1` the figure was 1300 s; with `CCc1cc(=O)n(CC(=O)N2CCCc3ccccc32)c(N2CCOCC2)n1`, 781 s. With `O=C(C1CCN(c2ccc(Sc3ccc(Cl)cc3)nn2)CC1)N1CCN(c2ncccn2)CC1` the figure was 801 s. `COc1ccc(-n2c(=O)n(C)c(=O)c3cc(C(=O)Nc4ccc(F)c(C)c4)cnc32)cc1` returned an RP-LC retention time of 955 s.

With `CCOC(=O)CCCn1nc(C)c2nn(-c3ccccc3)c(-n3cccc3)c2c1=O`, the RP-LC retention time is 1060 s. `CN1C(=O)[C@H]2CN(Cc3ccc(OC(F)(F)F)cc3)C[C@H]2C1=O`: the RP-LC retention time is 666 s.

As for `O=C(NC1CCCCC1)C1CCCN(c2nnc3ccc(Cl)cn23)C1` (stereo unspecified), the RP-LC retention time was 778 s. With `Cc1cccn2cc(C(=O)NCc3cccc(Cl)c3)nc12` the figure was 777 s. With `CCSc1nnc(-c2nn(C)c3c2CN(C(=O)c2cc(C)cc(C)c2)CC3)n1C` the figure was 811 s; with `Cc1cccc(-c2noc(Cn3ccn(-c4cc(C)cc(C)c4)c(=O)c3=O)n2)c1`, 925 s; with `O=C(Cn1cc(-c2nc(-c3cccs3)no2)ccc1=O)c1ccc2c(c1)OCO2`, 850 s. With `CCSc1nnc(-c2nn(C)c3c2CN(C(=O)c2c(F)cccc2F)CC3)n1C` the figure was 746 s. With `C#CCCNC(=O)c1ccc(C)c(C)c1`, the RP-LC retention time is 720 s. With `Nc1ncnc(Nc2cccc3c2CCCC3)c1[N+](=O)[O-]` the figure was 838 s.

With `COc1cccc(-c2cn3ccn(-c4ccc(F)c(Cl)c4)c(=O)c3n2)c1`, the RP-LC retention time is 859 s. With `COC1CCOC2(CCN(C(=O)c3ccsc3)CC2)C1` (stereo unspecified) the figure was 676 s; with `COc1cc(C(=O)Nc2cccc(-c3cn4ccsc4n3)c2)c([N+](=O)[O-])cc1OC`, 658 s.

The compound `Clc1cc(Cl)cc(-c2ccc(CNCc3ccncc3)o2)c1` registered an RP-LC retention time of 649 s. With `COc1ccc(OC)c(NC(=O)N2CCC(N3CCN(Cc4ccccc4)C3=O)CC2)c1` the figure was 828 s; with `O=C(CCc1nc2ccccc2s1)NC1CCN(C(=O)N2C[C@H]3C[C@H](C2)[C@H]2CCCC(=O)N2C3)CC1`, 661 s; with `c1cnn(-c2ccc(-c3noc(C4CCC4)n3)cn2)c1`, 1090 s.

With `O=C(NCCc1nc(-c2ccccc2)no1)c1sc2cccc(Cl)c2c1Cl`, the RP-LC retention time was 1200 s. With `CCn1c(C(=O)NCCCc2ccccc2)cc2sccc21` the figure was 1050 s; with `Cc1cc(C(=O)N2CCC3(CCC3OCC(N)=O)CC2)c(C)o1` (stereo unspecified), 681 s.

The compound `COc1ccc(N2C(=O)CCC(C(=O)N3CC(C)CC(C)C3)C2c2ccc(F)cc2)cc1` (stereo unspecified) showed an RP-LC retention time of 896 s. With `CCn1ccc2sc(C)c(C(=O)NCc3ccc(F)cc3)c2c1=O` the figure was 798 s. With `O=C(Nc1ccc(Br)cc1)Nc1c(-c2ccncc2)nc2ccccn12` the figure was 641 s; with `O=C(NCc1ccco1)c1ccc2ccnc(N3CCN(c4ccc(F)cc4)CC3)c2c1`, 782 s. With `CC1(C(=O)NCc2ccc(F)cc2)CN(S(C)(=O)=O)CC(=O)N1Cc1ccc(Cl)cc1` (stereo unspecified) the figure was 866 s; with `COc1cc(NC(=O)c2c(OC)cc(=O)n3c2CCCC3)cc(OC)c1`, 691 s; with `Cc1ccc(-n2nnnc2CNC(=O)Nc2ccc3c(c2)OCO3)cc1C`, 734 s. `N#Cc1cccc(C(=O)NC2CCCC(OC(=O)Nc3ccccc3)C2)c1` (stereo unspecified) came in with an RP-LC retention time of 819 s. With `COc1cccc(-c2nc3cnccn3c2NCCC(=O)NC2CCCCC2)c1` the figure was 710 s.

Compound `Cn1cc(CCN2CCC(C(=O)NCc3cccc(Cl)c3)CC2)c2cccnc21` came in with an RP-LC retention time of 630 s.

On to `Cc1noc(-c2ccc(NC(=O)c3cc(-c4ccco4)on3)cc2)n1`, for which the RP-LC retention time came to 902 s.

For `Cc1cc(C(=O)NCC(O)(c2ccccc2)C(F)(F)F)no1` (stereo unspecified), the RP-LC retention time was determined as 776 s. With `OCc1cc2c(cn1)[nH]c1ccccc12` the figure was 637 s. With `Cn1cc(C(=O)O)c(S(=O)(=O)N2CCOCC2)n1` the figure was 576 s; with `O=C(c1ccc(-c2cccs2)nc1)N1CCCC1`, 737 s; with `Cc1cccc(CN2CCN(CC(=O)NC3CCN(Cc4ccccc4)CC3)C(=O)C2=O)c1`, 609 s. `O=C(C1CCCN(c2cnc3nccnc3c2)C1)N1CCCCCC1` (stereo unspecified) registered an RP-LC retention time of 692 s. With `COCC(=O)N1CCCn2cc(-c3ccccc3F)nc21` the figure was 668 s. With `O=C(NCc1ccc2c(c1)OCO2)C1CN(c2nc3c(F)cccc3s2)C1` the figure was 776 s. With `CCCOc1ccc(C2NC(=O)NC(C)=C2C(=O)OCC(F)(F)F)cc1OC` (stereo unspecified) the figure was 808 s; with `CC(C)(C)c1csc(NC(=O)C2CC(=O)N(c3n[nH]c4cccc(F)c34)C2)n1` (stereo unspecified), 838 s; with `Cc1cccc(Cn2nc3n(c2=O)CCCCC3)c1`, 763 s. In turn, `C=CCNC(=O)c1cn(-c2ccc(-c3nc(CC)no3)cn2)cn1` came in with an RP-LC retention time of 750 s. With `O=C(NCCOc1ccc(F)cc1)NCc1ccc(Cl)cc1` the figure was 850 s; with `CCn1c(C)cc(O)c(C(c2ccccc2[N+](=O)[O-])c2c(O)cc(C)n(CC)c2=O)c1=O`, 884 s; with `CC1CCN(S(=O)(=O)c2ccc3nn(Cc4ccccc4Cl)c(=O)n3c2)CC1`, 1040 s. With `CCOC(=O)N1CCN(c2cnc3cc(S(=O)(=O)N4CCCCC4)ccc3n2)CC1` the figure was 891 s; with `Cc1ccc(C)c(N2CCN(C(=O)C3CCN(S(=O)(=O)c4cccc5nsnc45)CC3)CC2)c1`, 1070 s; with `COCCNC(=O)Nc1cccn2c(C)nnc12`, 556 s.

For `Cc1c(NC(=O)c2ccccc2-c2ccccc2C(=O)O)c(=O)n(-c2ccccc2)n1C`, the RP-LC retention time was found to be 681 s. With `CCc1nnc2ccc(-c3noc(-c4ccc(NC(C)=O)cc4)n3)cn12` the figure was 705 s.

Regarding `O=C(Nc1cccc(Cl)c1)N1CCc2nc[nH]c2C1`, the RP-LC retention time is 597 s. The compound `COc1ccc(NC(=O)NCC(c2cccnc2)c2cn(C)c3ccccc23)cc1` (stereo unspecified) came in with an RP-LC retention time of 678 s. With `CCCNC(=O)N(C1CCOCC1)C1CCN(C(=O)Cc2ccsc2)CC1` the figure was 703 s.

Take `COc1ccc(NC(=O)C2CCN(c3nnc4ccc(Cl)cn34)CC2)c(OC)c1`: the RP-LC retention time amounted to 723 s. With `CS(=O)(=O)c1ccccc1C(=O)Nc1ccc2sccc2c1` the figure was 757 s; with `O=C(Nc1cccn2cnnc12)c1ccc(Cl)s1`, 719 s. On to `Cc1ccc(N2CCN(S(=O)(=O)c3cc(-c4nnc(C5CCC5)o4)co3)CC2)cc1`, for which the RP-LC retention time amounted to 1110 s. In turn, `O=C(O)c1cccc2c1CCN2C(=O)Nc1ccc(F)cc1` had an RP-LC retention time of 782 s. With `Cc1cc(Cl)ccc1OCC(=O)N(Cc1ccc(N(C)C)cc1)C1CCS(=O)(=O)C1` (stereo unspecified) the figure was 849 s; with `Cc1cc(S(=O)(=O)[C@H]2CS(=O)(=O)C[C@@H]2N2CCN(Cc3ccccc3)CC2)ccc1F`, 678 s; with `COc1nn(C)cc1C(=O)N1CCc2nc(NC(=O)c3ccco3)sc2C1`, 599 s.

`CCCc1cc(N2CCN(C(=O)c3nccc4ccccc34)CC2)nc2nncn12` came in with an RP-LC retention time of 619 s. With `Clc1ccccc1-c1csc(Nc2ccccn2)n1` the figure was 960 s. With `O=C(NCCc1csc(-c2ccccc2)n1)C1CCN(S(=O)(=O)c2ccccc2F)CC1` the figure was 893 s; with `Cc1ccc(NC(=O)Cn2nc3c(Oc4ccccc4C)nccn3c2=O)cc1`, 853 s; with `CC(C)OCCCNC(=O)C(C)n1c2ccccc2c2cnn(C)c(=O)c21` (stereo unspecified), 803 s.

The compound `CCOC(=O)COC(=O)c1cn(-c2cccc(OC)c2)c(=O)c2ccccc12` showed an RP-LC retention time of 1010 s. With `O=C(NC1CCCCCC1)C1CCCN(C(=O)c2cccc(C(F)(F)F)c2)C1` (stereo unspecified) the figure was 948 s; with `COc1ccc(-c2noc(CS(=O)(=O)c3ccc(C)cc3)n2)cc1OC`, 990 s.

As for `COC(=O)c1cc(OCC(=O)Nc2cc(Cl)ccc2OC)c2cc(OC)ccc2n1`, the RP-LC retention time turned out to be 970 s. With `O=C(CCC1CCN(c2cc(NC3CC3)ncn2)CC1)NCc1cnccn1` the figure was 564 s; with `Cc1cc(C)cc(C(=O)NC2CCN(c3cc(-c4ccccc4)[nH]n3)C2)c1` (stereo unspecified), 770 s.

In turn, `Cc1noc2nc(CCC(=O)NCCCc3ccccc3)nc(N3CCCC3)c12` gave an RP-LC retention time of 765 s. With `O=C(CN1CCCCCC1)N1CCC2(CCC2O)CC1` (stereo unspecified) the figure was 555 s; with `O=C(COc1ccc(F)cc1)NCc1ccc2c(c1)OCCCO2`, 853 s.
